For this data set, the system named is upper respiratory mucosa. The experiment in a line: Safety tests of topical ascorbate (spray, lozenge) on upper respiratory mucosa. The following applies: Three ml oral/nasal spray in sterile water three times daily for six months.

From the text: Initiation of the test sought first to assure that the designed aerosol would be safely tolerated by the IC's respiratory mucosa.

Regarding `O=C1O[C@H]([C@@H](O)CO)C(O)=C1O` [ascorbate], the “Adverse effects of spray on upper respiratory mucosa” value is “no adverse effects”.

The values above are taken from patent US20120141467A1, “Ascorbic acid to treat chronic obstructive lung diseases and non-Hodgkin's lymphoma” (priority 2010, published 2012).
